# Experimental data reported in patent publication US20230241245A1, “Therapeutic Carbon Nanomaterial H2S Oxidants for Biological Polysulfide Synthesis” (The Texas A&M University System, priority 2020, published 2023).
# System: bEnd.3 cells
# Assay: SSP4 fluorescence photomicrographs of bEnd.3 cells with or without AP39 and PEG-OAC
# Assay type: cell-based
# Conditions: PEG-OACs 4 mg/L
smiles,measurement,value
O=C(CCCCCCCCC[P+](c1ccccc1)(c1ccccc1)c1ccccc1)Oc1ccc(-c2cc(=S)ss2)cc1.[Br-] [AP39],"SSP4 fluorescence, agent alone relative to control",increases the fluorescence signal
